# According to patent US8541445B2, “Pyrazolopyridines” (Vertex Pharmaceuticals Incorporated, priority 2009, dated 2013):
# pKi: −log10 of the molar value.
# Biological target: PKC theta kinase (Homo sapiens, UniProt Q04759)
# Experiment: PKC theta kinase inhibition, coupled-enzyme NADH absorbance assay
# Format: biochemical
# Settings: 18 nM PKC theta kinase, 240 μM ATP, 30° C.
# Method: An assay buffer solution was prepared which consisted of 100 mM HEPES (pH 7.5), 10 mM MgCl2, 25 mM NaCl, 0.1 mM EDTA and 0.01% Brij. An enzyme buffer containing reagents to final assay concentrations of 0.00001% Triton X-100, 200 μg/mL Phosphatidylserine, 20 μg/mL Diacylglycerol, 360 μM NADH, 3 mM phosphoenolpyruvate, 70 μg/mL pyruvate kinase, 24 μg/mL lactate dehydrogenase, 2 mM DTT, 100 μM substrate peptide (ERMRPRKRQGSVRRRV SEQ ID NO. 1) and 18 nM PKC theta kinase was prepared in assay buffer. To 60 μL of this enzyme buffer, in a 384 well plate, was added 2 μL of VRT stock solution in DMSO. The mixture was allowed to equilibrate for 10 mins at 30° C. The enzyme reaction was initiated by the addition of 5 μL stock ATP solution prepared in assay buffer to a final assay concentration of 240 μM. Initial rate data was determined from the rate of change of absorbance at 340 nm (corresponding to stoichiometric consumption of NADH) using a Molecular Devices Spectramax plate reader (Sunnyvale, Calif.) over 15 mins at 30° C. For each Ki determination 12 data points covering the VRT concentration range of 0-20 μM were obtained in duplicate (DMSO stocks were prepared from an initial 10 mM VRT stock with subsequent 1:2 serial dilutions). Ki values were calculated from initial rate data by non-linear regression using the Prism software package (Prism 4.0a, Graphpad Software, San Diego, Calif.).
# Chain of PKC theta kinase (Q04759 whole entry): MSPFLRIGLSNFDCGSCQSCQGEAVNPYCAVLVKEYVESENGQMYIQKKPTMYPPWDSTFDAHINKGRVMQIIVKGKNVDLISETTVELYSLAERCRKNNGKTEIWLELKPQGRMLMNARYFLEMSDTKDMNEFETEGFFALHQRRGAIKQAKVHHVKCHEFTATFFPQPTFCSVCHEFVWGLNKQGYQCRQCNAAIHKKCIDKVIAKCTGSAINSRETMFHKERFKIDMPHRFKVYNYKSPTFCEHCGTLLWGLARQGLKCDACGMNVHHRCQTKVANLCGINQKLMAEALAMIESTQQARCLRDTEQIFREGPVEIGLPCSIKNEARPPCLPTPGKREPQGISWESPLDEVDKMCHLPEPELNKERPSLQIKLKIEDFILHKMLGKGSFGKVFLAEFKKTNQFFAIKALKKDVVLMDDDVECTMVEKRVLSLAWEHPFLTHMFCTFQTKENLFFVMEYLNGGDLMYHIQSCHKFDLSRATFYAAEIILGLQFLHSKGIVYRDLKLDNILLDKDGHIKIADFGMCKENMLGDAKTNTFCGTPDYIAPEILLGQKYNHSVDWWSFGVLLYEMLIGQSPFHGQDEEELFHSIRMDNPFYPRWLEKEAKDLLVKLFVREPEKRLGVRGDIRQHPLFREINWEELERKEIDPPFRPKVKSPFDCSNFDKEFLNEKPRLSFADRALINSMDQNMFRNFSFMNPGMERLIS
row,pKi,Structure (SMILES)
1,> 6.30,"N#CCc1csc(-c2ccnc3[nH]ncc23)n1 [Compound 1, 2-(2-(1H-pyrazolo[3,4-b]pyridin-4-yl)thiazol-4-yl)ethanenitrile]"
2,> 7.30,"CC(C)(C#N)c1csc(-c2ccnc3[nH]ncc23)n1 [Compound 2, 2-(2-(1H-pyrazolo[3,4-b]pyridin-4-yl)thiazol-4-yl)-2-methyl propanenitrile]"
3,> 7.30,"CC(C)(CN)c1csc(-c2ccnc3[nH]ncc23)n1 [Compound 3, 2-(2-(1H-pyrazolo[3,4-b]pyridin-4-yl)thiazol-4-yl)-2-methylpropan-1-amine]"
4,> 6.30,"Cc1sc(-c2ccnc3[nH]ncc23)nc1C(C)(C)CN [Compound 4, 2-methyl-2-(5-methyl-2-(1H-pyrazolo[3,4-b]pyridin-4-yl)thiazol-4-yl)propan-1-amine]"
5,> 7.30,CCC(C#N)c1csc(-c2ccnc3[nH]ncc23)n1 (stereo not drawn) [Compound 5]
6,> 7.30,CCC(C)(C#N)c1csc(-c2ccnc3[nH]ncc23)n1 (stereo not drawn) [Compound 6]
7,> 7.30,CCC(C#N)(CC)c1csc(-c2ccnc3[nH]ncc23)n1 [Compound 7]
8,> 7.30,CCC(C)(C#N)c1csc(-c2ccnc3[nH]nc(Cl)c23)n1 (stereo not drawn) [Compound 8]
9,> 7.30,CCC(CN)c1csc(-c2ccnc3[nH]ncc23)n1 (stereo not drawn) [Compound 9]
10,> 7.30,CCC(C)(CN)c1csc(-c2ccnc3[nH]ncc23)n1 (stereo not drawn) [Compound 10]
11,> 7.30,CCC(C)(CN)c1csc(-c2ccnc3[nH]nc(Cl)c23)n1 (stereo not drawn) [Compound 11]
12,> 6.30,"CC1(CN)CCCc2sc(-c3ccnc4[nH]ncc34)nc21 (stereo not drawn) [Compound 12, (4-methyl-2-(1H-pyrazolo[3,4-b]pyridin-4-yl)-4,5,6,7-tetrahydrobenzo[d]thiazol-4-yl)methanamine]"
13,> 7.30,"CCC(C)(CN)c1csc(-c2ccnc3[nH]ncc23)c1 (stereo not drawn) [Compound 13, 2-(5-(1H-pyrazolo[3,4-b]pyridin-4-yl)thiophen-3-yl)-2-methylbutan-1-amine]"
14,> 6.30,CCC(C)(CN)c1ccsc1-c1ccnc2[nH]ncc12 (stereo not drawn) [Compound 14]
15,> 6.30,"CCC(C#N)n1cc(-c2ccnc3[nH]ncc23)cn1 (stereo not drawn) [Compound 15, 2-(4-(1H-pyrazolo[3,4-b]pyridin-4-yl)-1H-pyrazol-1-yl)butanenitrile]"
16,> 6.30,NCCn1cc(-c2ccnc3[nH]ncc23)cn1 [Compound 16]
17,> 5.55,"CCC(CN)n1cc(-c2ccnc3[nH]ncc23)cn1 (stereo not drawn) [Compound 17, 2-(4-(1H-pyrazolo[3,4-b]pyridin-4-yl)-1H-pyrazol-1-yl)butan-1-amine]"

# Biological target: PKC delta kinase (Homo sapiens, UniProt Q05655)
# Experiment: PKC delta kinase inhibition, coupled-enzyme NADH absorbance assay
# Format: biochemical
# Settings: 46 nM PKC delta kinase, 150 μM ATP, 30° C.
# Method: An assay buffer solution was prepared which consisted of 100 mM HEPES (pH 7.5), 10 mM MgCl2, 25 mM NaCl, 0.1 mM EDTA and 0.01% Brij. An enzyme buffer containing reagents to final assay concentrations of 0.002% Triton X-100, 200 μg/mL Phosphatidylserine, 20 μg/mL Diacylglycerol, 360 μM NADH, 3 mM phosphoenolpyruvate, 70 μg/mL pyruvate kinase, 24 μg/mL lactate dehydrogenase, 2 mM DTT, 150 μM substrate peptide (ERMRPRKRQGSVRRRV SEQ ID NO. 2) and 46 nM PKC delta kinase was prepared in assay buffer. To 16 μL of this enzyme buffer, in a 384 well plate, was added 1 μL of VRT stock solution in DMSO. The mixture was allowed to equilibrate for 10 mins at 30° C. The enzyme reaction was initiated by the addition of 16 μL stock ATP solution prepared in assay buffer to a final assay concentration of 150 μM. Initial rate data was determined from the rate of change of absorbance at 340 nm (corresponding to stoichiometric consumption of NADH) using a Molecular Devices Spectramax plate reader (Sunnyvale, Calif.) over 15 mins at 30° C. For each Ki determination 12 data points covering the VRT concentration range of 0-20 μM were obtained in duplicate (DMSO stocks were prepared from an initial 10 mM VRT stock with subsequent 1:2 serial dilutions). Ki values were calculated from initial rate data by non-linear regression using the Prism software package (Prism 4.0a, Graphpad Software, San Diego, Calif.).
# Chain of PKC delta kinase (Q05655 whole entry): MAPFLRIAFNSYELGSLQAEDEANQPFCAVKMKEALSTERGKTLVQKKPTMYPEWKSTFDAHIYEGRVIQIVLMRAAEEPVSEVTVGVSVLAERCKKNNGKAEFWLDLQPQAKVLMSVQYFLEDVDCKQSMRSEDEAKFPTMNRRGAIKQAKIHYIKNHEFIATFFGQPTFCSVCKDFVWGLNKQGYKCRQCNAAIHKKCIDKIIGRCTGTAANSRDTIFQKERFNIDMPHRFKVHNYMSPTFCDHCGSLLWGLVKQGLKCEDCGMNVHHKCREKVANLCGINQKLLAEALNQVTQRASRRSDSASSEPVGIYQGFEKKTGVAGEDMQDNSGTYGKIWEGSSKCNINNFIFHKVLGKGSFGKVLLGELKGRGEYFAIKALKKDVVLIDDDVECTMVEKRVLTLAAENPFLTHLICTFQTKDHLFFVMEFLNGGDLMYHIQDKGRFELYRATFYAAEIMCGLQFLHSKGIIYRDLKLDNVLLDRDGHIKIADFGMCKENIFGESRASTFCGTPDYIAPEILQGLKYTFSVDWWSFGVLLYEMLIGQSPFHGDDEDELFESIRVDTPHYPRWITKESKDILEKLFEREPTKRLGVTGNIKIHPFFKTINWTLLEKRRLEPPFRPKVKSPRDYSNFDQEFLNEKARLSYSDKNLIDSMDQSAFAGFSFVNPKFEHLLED
row,pKi,Structure (SMILES)
1,> 5.55,"N#CCc1csc(-c2ccnc3[nH]ncc23)n1 [Compound 1, 2-(2-(1H-pyrazolo[3,4-b]pyridin-4-yl)thiazol-4-yl)ethanenitrile]"
2,> 6.30,"CC(C)(C#N)c1csc(-c2ccnc3[nH]ncc23)n1 [Compound 2, 2-(2-(1H-pyrazolo[3,4-b]pyridin-4-yl)thiazol-4-yl)-2-methyl propanenitrile]"
3,> 6.30,"CC(C)(CN)c1csc(-c2ccnc3[nH]ncc23)n1 [Compound 3, 2-(2-(1H-pyrazolo[3,4-b]pyridin-4-yl)thiazol-4-yl)-2-methylpropan-1-amine]"
4,> 6.30,"Cc1sc(-c2ccnc3[nH]ncc23)nc1C(C)(C)CN [Compound 4, 2-methyl-2-(5-methyl-2-(1H-pyrazolo[3,4-b]pyridin-4-yl)thiazol-4-yl)propan-1-amine]"
5,> 6.30,CCC(C#N)c1csc(-c2ccnc3[nH]ncc23)n1 (stereo not drawn) [Compound 5]
6,> 6.30,CCC(C)(C#N)c1csc(-c2ccnc3[nH]ncc23)n1 (stereo not drawn) [Compound 6]
7,> 6.30,CCC(C#N)(CC)c1csc(-c2ccnc3[nH]ncc23)n1 [Compound 7]
8,> 6.30,CCC(C)(C#N)c1csc(-c2ccnc3[nH]nc(Cl)c23)n1 (stereo not drawn) [Compound 8]
9,> 6.30,CCC(CN)c1csc(-c2ccnc3[nH]ncc23)n1 (stereo not drawn) [Compound 9]
10,> 6.30,CCC(C)(CN)c1csc(-c2ccnc3[nH]ncc23)n1 (stereo not drawn) [Compound 10]
11,> 7.30,CCC(C)(CN)c1csc(-c2ccnc3[nH]nc(Cl)c23)n1 (stereo not drawn) [Compound 11]
12,> 5.55,"CC1(CN)CCCc2sc(-c3ccnc4[nH]ncc34)nc21 (stereo not drawn) [Compound 12, (4-methyl-2-(1H-pyrazolo[3,4-b]pyridin-4-yl)-4,5,6,7-tetrahydrobenzo[d]thiazol-4-yl)methanamine]"
13,> 6.30,"CCC(C)(CN)c1csc(-c2ccnc3[nH]ncc23)c1 (stereo not drawn) [Compound 13, 2-(5-(1H-pyrazolo[3,4-b]pyridin-4-yl)thiophen-3-yl)-2-methylbutan-1-amine]"
14,< 5.70,CCC(C)(CN)c1ccsc1-c1ccnc2[nH]ncc12 (stereo not drawn) [Compound 14]
15,> 5.55,"CCC(C#N)n1cc(-c2ccnc3[nH]ncc23)cn1 (stereo not drawn) [Compound 15, 2-(4-(1H-pyrazolo[3,4-b]pyridin-4-yl)-1H-pyrazol-1-yl)butanenitrile]"
16,> 5.55,NCCn1cc(-c2ccnc3[nH]ncc23)cn1 [Compound 16]
17,> 5.55,"CCC(CN)n1cc(-c2ccnc3[nH]ncc23)cn1 (stereo not drawn) [Compound 17, 2-(4-(1H-pyrazolo[3,4-b]pyridin-4-yl)-1H-pyrazol-1-yl)butan-1-amine]"

# Biological target: PKC alpha kinase (Homo sapiens, UniProt P17252)
# Experiment: PKC alpha kinase inhibition, coupled-enzyme NADH absorbance assay
# Format: biochemical
# Settings: 4.5 nM PKC alpha kinase, 130 μM ATP, 100 μM CaCl2, 30° C.
# Method: An assay buffer solution was prepared which consisted of 100 mM HEPES (pH 7.5), 10 mM MgCl2, 25 mM NaCl, 0.1 mM EDTA, 100 μM CaCl2 and 0.01% Brij. An enzyme buffer containing reagents to final assay concentrations of 0.002% Triton X-100, 100 μg/mL Phosphatidylserine, 20 μg/mL Diacylglycerol, 360 μM NADH, 3 mM phosphoenolpyruvate, […], 24 μg/mL lactate dehydrogenase, 2 mM DTT, 150 μM substrate peptide (RRRRRKGSFKRKA SEQ ID NO. 3) and 4.5 nM PKC alpha kinase was prepared in assay buffer. To 16 μL of this enzyme buffer, in a 384 well plate, was added 1 μL of VRT stock solution in DMSO. The mixture was allowed to equilibrate for 10 mins at 30° C. The enzyme reaction was initiated by the addition of 16 μL stock ATP solution prepared in assay buffer to a final assay concentration of 130 μM. Initial rate data was determined from the rate of change of absorbance at 340 nm (corresponding to stoichiometric consumption of NADH) using a Molecular Devices Spectramax plate reader (Sunnyvale, Calif.) over 15 mins at 30° C. For each Ki determination 12 data points covering the VRT concentration range of 0-20 μM were obtained in duplicate (DMSO stocks were prepared from an initial 10 mM VRT stock with subsequent 1:2 serial dilutions). Ki values were calculated from initial rate data by non-linear regression using the Prism software package (Prism 4.0a, Graphpad Software, San Diego, Calif.).
row,pKi,Structure (SMILES)
1,< 5.90,"N#CCc1csc(-c2ccnc3[nH]ncc23)n1 [Compound 1, 2-(2-(1H-pyrazolo[3,4-b]pyridin-4-yl)thiazol-4-yl)ethanenitrile]"
2,> 5.55,"CC(C)(C#N)c1csc(-c2ccnc3[nH]ncc23)n1 [Compound 2, 2-(2-(1H-pyrazolo[3,4-b]pyridin-4-yl)thiazol-4-yl)-2-methyl propanenitrile]"
3,> 5.55,"CC(C)(CN)c1csc(-c2ccnc3[nH]ncc23)n1 [Compound 3, 2-(2-(1H-pyrazolo[3,4-b]pyridin-4-yl)thiazol-4-yl)-2-methylpropan-1-amine]"
4,> 5.55,"Cc1sc(-c2ccnc3[nH]ncc23)nc1C(C)(C)CN [Compound 4, 2-methyl-2-(5-methyl-2-(1H-pyrazolo[3,4-b]pyridin-4-yl)thiazol-4-yl)propan-1-amine]"
5,> 6.30,CCC(C#N)c1csc(-c2ccnc3[nH]ncc23)n1 (stereo not drawn) [Compound 5]
6,> 5.55,CCC(C)(C#N)c1csc(-c2ccnc3[nH]ncc23)n1 (stereo not drawn) [Compound 6]
7,> 6.30,CCC(C#N)(CC)c1csc(-c2ccnc3[nH]ncc23)n1 [Compound 7]
8,> 5.55,CCC(C)(C#N)c1csc(-c2ccnc3[nH]nc(Cl)c23)n1 (stereo not drawn) [Compound 8]
9,< 5.90,CCC(CN)c1csc(-c2ccnc3[nH]ncc23)n1 (stereo not drawn) [Compound 9]
10,> 5.55,CCC(C)(CN)c1csc(-c2ccnc3[nH]ncc23)n1 (stereo not drawn) [Compound 10]
11,> 6.30,CCC(C)(CN)c1csc(-c2ccnc3[nH]nc(Cl)c23)n1 (stereo not drawn) [Compound 11]
12,< 5.90,"CC1(CN)CCCc2sc(-c3ccnc4[nH]ncc34)nc21 (stereo not drawn) [Compound 12, (4-methyl-2-(1H-pyrazolo[3,4-b]pyridin-4-yl)-4,5,6,7-tetrahydrobenzo[d]thiazol-4-yl)methanamine]"
13,> 6.30,"CCC(C)(CN)c1csc(-c2ccnc3[nH]ncc23)c1 (stereo not drawn) [Compound 13, 2-(5-(1H-pyrazolo[3,4-b]pyridin-4-yl)thiophen-3-yl)-2-methylbutan-1-amine]"
14,< 5.90,CCC(C)(CN)c1ccsc1-c1ccnc2[nH]ncc12 (stereo not drawn) [Compound 14]
15,< 5.90,"CCC(C#N)n1cc(-c2ccnc3[nH]ncc23)cn1 (stereo not drawn) [Compound 15, 2-(4-(1H-pyrazolo[3,4-b]pyridin-4-yl)-1H-pyrazol-1-yl)butanenitrile]"
16,< 5.90,NCCn1cc(-c2ccnc3[nH]ncc23)cn1 [Compound 16]
17,< 5.90,"CCC(CN)n1cc(-c2ccnc3[nH]ncc23)cn1 (stereo not drawn) [Compound 17, 2-(4-(1H-pyrazolo[3,4-b]pyridin-4-yl)-1H-pyrazol-1-yl)butan-1-amine]"
